This is an account of results in ChEMBL document CHEMBL5252581, “Using a Bioactive Eremophila-Derived Serrulatane Scaffold to Generate a Unique Carbamate Library for Anti-infective Evaluations” (J Nat Prod, 2023).

Each structure is given as a SMILES string.

In data set [1] the test system is Haemonchus contortus. Briefly: Anthelmintic activity against fourth stage larvae of Haemonchus contortus assessed as induction of skinny phenotype at 100 uM measured after 7 days relative to control. The settings on record: time 7 day. The class given is functional.
Data set [2] concerns Plasmodium falciparum. Briefly: Antimalarial activity against chloroquine sensitive Plasmodium falciparum 3D7 assessed as parasite growth inhibition at 80 uM incubated for 72 hrs by DAPI staining method. The class given is functional.
The test system of data set [3] is Plasmodium falciparum. In words: Antimalarial activity against multidrug resistant Plasmodium falciparum Dd2 assessed as parasite growth inhibition at 80 uM incubated for 72 hrs by DAPI staining method. The class given is functional.
Data set [4] can be described thus: Cytotoxicity against HEK293 cells assessed as inhibition of cell growth at 80 uM incubated for 72 hrs by alamar blue dye based fluorescence assay relative to control. The class given is toxicity. The settings on record: human. (In general: Alamar Blue is a resazurin reagent that responds to reducing activity.)
The subject of data set [5] is Haemonchus contortus. Briefly: Anthelmintic activity against third stage larvae of Haemonchus contortus assessed as reduction in larval motility measured at 168 hrs by microscope based analysis. The class given is functional, organism-based.
In data set [6] the test system is Haemonchus contortus. In words: Anthelmintic activity against third stage larvae of Haemonchus contortus assessed as reduction in larval motility at 50 uM measured at 168 hrs by microscope based analysis relative to control. The class given is functional. Further details: scale not given: the % may be the effect or the level left.
Data set [7] deals with Haemonchus contortus. Briefly: Anthelmintic activity against Haemonchus contortus assessed as inhibition of L4 development at 50 uM measured at 168 hrs by microscope based analysis relative to control. The class given is functional.
Data set [8] relates to Haemonchus contortus. Briefly: Anthelmintic activity against Haemonchus contortus assessed as induction of skinny phenotype at 50 uM measured at 168 hrs by microscope based analysis. The class given is functional.
The test system of data set [9] is Human immunodeficiency virus 1. In words: Reversal of HIV-1 latency infected in GFP-fused human J-Lat 10.6 cells assessed as inhibition of 160 nM PMA-induced HIV production at 100 ug/ml incubated for 24 hrs by flow cytometry analysis relative to control. The class given is functional. Conditions: Human immunodeficiency virus 1, J-Lat 10.6. A general note: A flow cytometer gives signals particle by particle.

The test system of data set [10] is Human immunodeficiency virus 1. Briefly: Reversal of HIV-1 latency infected in GFP-fused human J-Lat 10.6 cells assessed as inhibition of 160 nM PMA-induced HIV production incubated for 24 hrs by flow cytometry analysis. The class given is functional, organism-based. Conditions: Human immunodeficiency virus 1, J-Lat 10.6, 24 h.
Data set [11] relates to Human immunodeficiency virus 1. In words: Reversal of HIV-1 latency infected in GFP-fused human J-Lat 10.6 cells assessed as inhibition of 50 nM PMA-induced HIV production by flow cytometry analysis. The class given is functional, organism-based. The settings on record: Human immunodeficiency virus 1, J-Lat 10.6.
For data set [12], the system named is Haemonchus contortus. Briefly: Anthelmintic activity against fourth stage larvae of Haemonchus contortus assessed as induction of skinny phenotype measured after 7 days. The class given is functional, organism-based. The settings on record: 168 h.
Data set [13] concerns Haemonchus contortus. Briefly: Anthelmintic activity against fourth stage larvae of Haemonchus contortus assessed as midbody width of L4 larvae measured after 7 days by microscopic analysis (reference value: 16.3+/-1.5 uM). The class given is functional. Conditions: time 7 day.

Turning to `COC(=O)c1cc2c(c(OC)c1OC)[C@H](C)C[C@@H](O)[C@H]2[C@@H](C)CCC=C(C)C`, the Activity in the data set on Haemonchus contortus [1] is 78.4%; in the data set on Haemonchus contortus [6], 28.3%; in the data set with Haemonchus contortus [8], 59.1%; in the data set with Haemonchus contortus [13], 8.8 µM. In addition, the inhibition at 80 µM in the data set with Plasmodium falciparum [2] and in the data set on Plasmodium falciparum [3] was greater than 41% each time. Besides, in data set [4], the inhibition at 72 h, 80 µM came out at 4%. For the same molecule, the IC50 was 4.9 µM in the data set with Haemonchus contortus [5] and 13.5 µM with Haemonchus contortus [12]. The inhibition at 50 µM in the data set with Haemonchus contortus [7] came to 5.3%. In addition, in [9], the inhibition at 100 µg/mL was 66.5%. The EC50 came to 146 µM in data set [10] and 38.3 µM in data set [11].

As a reminder, the inhibition is the percentage by which the read-out fell short of the control. What is called IC50 is the concentration that gives 50% inhibition. Broadly, the EC50 is the concentration needed to bring the measured effect to its halfway point.
